4 compounds from patent US6613795B2, “Enantiomerically pure basic arylcycloalkylhydroxycarboxylic esters, processes for their preparation and their use in medicaments” (priority 1996, dated 2003) can be followed below.

One experiment deals with M2. Briefly: functional experiments on guinea pig atrium (GPA). Format: cell-based.
In the next experiment the target is T1, M2 receptors (Rattus norvegicus, UniProt P10980).
T1 construct: M2 receptors from preparations of rat hearts; from tissue; host or cells: rat heart preparations
T1 sequence (P10980 1-466): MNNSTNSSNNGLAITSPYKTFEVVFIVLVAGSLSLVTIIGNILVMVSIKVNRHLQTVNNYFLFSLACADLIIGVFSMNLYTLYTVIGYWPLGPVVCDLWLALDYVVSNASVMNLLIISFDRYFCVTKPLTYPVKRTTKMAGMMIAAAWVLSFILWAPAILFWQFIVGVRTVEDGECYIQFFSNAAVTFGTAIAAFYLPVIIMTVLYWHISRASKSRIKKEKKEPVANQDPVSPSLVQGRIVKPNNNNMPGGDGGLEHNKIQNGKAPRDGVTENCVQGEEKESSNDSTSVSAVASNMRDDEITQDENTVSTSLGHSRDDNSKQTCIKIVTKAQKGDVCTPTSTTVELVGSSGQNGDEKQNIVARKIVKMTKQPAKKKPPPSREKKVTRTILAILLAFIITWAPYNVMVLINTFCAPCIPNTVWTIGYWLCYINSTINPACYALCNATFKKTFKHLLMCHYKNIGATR
Nature of the experiment: [3H]-NMS binding studies on M2 receptors from preparations of rat hearts. An excerpt:
c pKi values from [^3H]-NMS binding studies on M2 receptors from preparations of rat hearts

Consider `C[N+]1(C)CC[C@@H](OC(=O)[C@](O)(c2ccccc2)C2CCCC2)C1` [Ic, (3R,2′R)-3-[(cyclopentylhydroxyphenylacetyl)oxy]-1,1-dimethylpyrrolidinium iodide], for which the “PA2 GPA (M2)” value in the experiment on M2 came to 9.43.

Regarding `C[N+]1(C)CC[C@@H](OC(=O)[C@@](O)(c2ccccc2)C2CCCC2)C1` [Id, (3R,2′S)-3-[(cyclopentylhydroxyphenylacetyl)oxy]-1,1-dimethylpyrrolidinium iodide], the Ki (usually the equilibrium dissociation constant of an inhibitor or competing ligand from its target) on M2 receptors was 1 nM. In the experiment on M2, the “PA2 GPA (M2)” value turned out to be 8.69.

Regarding `C[N+]1(C)CC[C@H](OC(=O)[C@@](O)(c2ccccc2)C2CCCC2)C1` [Ia, (3S,2′S)-3-[(cyclopentylhydroxyphenylacetyl)oxy]-1,1-dimethylpyrrolidinium iodide], the Ki at M2 receptors was 13.2 nM. Besides, in the experiment on M2, the “PA2 GPA (M2)” value was 7.92.

For `C[N+]1(C)CC[C@H](OC(=O)[C@](O)(c2ccccc2)C2CCCC2)C1` [Ib, (3S,2′R)-3-[(cyclopentylhydroxyphenylacetyl)oxy]-1,1-dimethylpyrrolidinium iodide], the Ki at M2 receptors was 0.182 nM.
